# Results from US20230210848A1, “CORONAVIRUS INFECTION THERAPEUTIC AGENT FORMED THROUGH COMBINATION OF PYRAZINE DERIVATIVE AND ANOTHER CORONAVIRUS INFECTION THERAPEUTIC DRUG” (priority 2020, published 2023).
# Tested on: HCoV-OC43
# Assay: Test Example 2: CPE inhibition in HCoV-OC43 infected BHK-21 cells, single or combination use
# Format: cell-based, Human coronavirus (HCoV-OC43)
# [1] = Betacoronavirus 1, OC43, BHK-21, read-out: CPE inhibition rate
SMILES,inhibition at 0.1 µM [1],inhibition at 0.3 µM [1],"CPE inhibition rate (single use of 1000 μM of T-705, BHK-21 cells)"
CCC(CC)COC(=O)[C@H](C)N[P@](=O)(OC[C@H]1O[C@@](C#N)(c2ccc3c(N)ncnn23)[C@H](O)[C@@H]1O)Oc1ccccc1 [remdesivir],51%,80%,–
"NC(=O)c1nc(F)cnc1O [T-705, favipiravir]",–,–,79%
